Where two headings read alike, the source gives them in different places.
How the values were obtained:
Format in all cases: cell-based
[1] = in vitro; settings: human; Table 3; cytotoxicity, cell titer glo, same condition as replicon assay; read-out: HCV Genotype 1B CC50
Text: (§1) The genotype 1a replicon contains several adaptive mutations (NS4B Q31H, NS5A K68R, NS5A S232I), the luciferase gene and encodes for neomycin resistance. The genotype 1b replicon, also referred to as the ET replicon, is stably transfected with RNA transcripts harboring a I389luc-ubi-neo/NS3-3′/ET replicon with firefly luciferase-ubiquitin-neomycin phosphotransferase fusion protein and EMCV-IRES driven NS3-5B polyprotein containing the cell culture adaptive mutations (E1202G; T12801; K1846T) See, Kreiger, et al., Journal of Virology 75:4614-4624 (2001). Both cell lines were grown in DMEM, supplemented with 10% fetal calf serum, 2 mM Glutamine, Penicillin (100 IU/mL)/Streptomycin (100 μg/mL), 1×nonessential amino acids, and 250 μg/mL G418 (“Geneticin”). They were all available through Life Technologies (Bethesda, Md.). The cells were plated at 0.5×10^4 cells/well in 384 well plates containing compounds. The final concentration of compounds ranged between 0.1 nM to 50 μM and the final DMSO concentration of 0.5%.
(§2) Luciferase activity was measured 48 hours later by adding a Steady glo (Promega, Madison, Wis.). Percent inhibition of replication data was plotted relative to no compound control. Under the same condition, cytotoxicity of the compounds was determined using cell titer glo (Promega, Madison, Wis.). EC50 values were determined from a 10 point dose response curve using 2-4 fold serial dilutions for each compound, which spans a concentration range of at least a 1000 fold. Replicon EC50 values, the concentration of compound required to inhibit 50% of the assay response, were calculated by curve fitting data to the Hill equation, using a non-linear least-squares curve-fitting program. The software tested the data for quality and rejected compounds with high and low activity before fitting the equation below.

[2] = test system: HCV genotype 1a H77 NS3-5B bicistronic subgenomic replicon; experiment: microbe, parasite or virus in culture; settings: Hepatitis C virus, luciferase activity after 48 hours, read-out: HCV Genotype 1A Replicon EC50
Text: (§3) Two cell lines were used for screening of compounds for inhibiting HCV RNA replication (genoytype 1a and 1b). Genotype la replicon cells, are a Huh-7 derived cell line bearing the genotype 1a H77NS3-5B bicistronic subgenomic replicon. See, Blight, et al., J. Virol. (2003) 77(5): 3181-3190.
as §1, §2
(§4) Analysis was performed using an XC50 module and BioAssay Enterprise (Cambridge Soft).

[3] = test system: HCV genotype 1b replicon (ET replicon); experiment: microbe, parasite or virus in culture; settings: Hepatitis C virus, luciferase activity after 48 hours, read-out: HCV Genotype 1B Replicon EC50
Text: as §3, §1, §2, §4

CCCOC(=O)C(c1cc(-c2ccc(C3CC3)cc2C(F)(F)F)no1)n1cc2nc(-c3cccc(F)c3F)nc-2cn1 (stereo not shown) [Compound 184, Propyl {3-[4-cyclopropyl-2-(trifluoromethyl)phenyl]-5-isoxazolyl}[2-(2,3-difluorophenyl)-5H-imidazo[4,5-d]pyridazin-5-yl]acetate]
CC50 [1]: 25 µM | EC50 ([2]; Table 3): 0.079 µM | EC50 ([3]; Table 3): 0.013 µM

COC(=O)C(c1cc(-c2ccc(C3CC3)cc2C(F)(F)F)no1)n1cc2nc(-c3cccc(F)c3F)nc-2cn1 (stereo not shown) [Compound 178, Methyl {3-[4-cyclopropyl-2-(trifluoromethyl)phenyl]-5-isoxazolyl}[2-(2,3-difluorophenyl)-5H-imidazo[4,5-d]pyridazin-5-yl]acetate]
CC50 [1]: 25 µM | EC50 ([2]; Table 3): 0.05 µM | EC50 ([3]; Table 3): 0.01 µM

O=C(OCCOCCO)C(c1cc(-c2ccc(C3CC3)cc2C(F)(F)F)no1)n1cc2nc(-c3cccc(F)c3F)nc-2cn1 (stereo not shown) [Compound 179, 2-[(2-hydroxyethyl)oxy]ethyl {3-[4-cyclopropyl-2-(trifluoromethyl)phenyl]-5-isoxazolyl}[2-(2,3-difluorophenyl)-5H-imidazo[4,5-d]pyridazin-5-yl]acetate]
CC50 [1]: 50 µM | EC50 ([2]; Table 3): 0.079 µM | EC50 ([3]; Table 3): 0.013 µM

O=C(OCCCO)C(c1cc(-c2ccc(C3CC3)cc2C(F)(F)F)no1)n1cc2nc(-c3cccc(F)c3F)nc-2cn1 (stereo not shown) [Compound 182, 3-Hydroxypropyl {3-[4-cyclopropyl-2-(trifluoromethyl)phenyl]-5-isoxazolyl}[2-(2,3-difluorophenyl)-5H-imidazo[4,5-d]pyridazin-5-yl]acetate]
CC50 [1]: > 50 µM | EC50 ([2]; Table 3): 0.063 µM | EC50 ([3]; Table 3): 0.013 µM

CCCOc1ccc(-c2cc(C(C(=O)OCCOCCO)n3cc4nc(-c5cccc(F)c5F)nc-4cn3)on2)c(C(F)(F)F)c1 (stereo not shown) [Compound 8, 2-[(2-Hydroxyethyl)oxy]ethyl [2-(2,3-difluorophenyl)-5H-imidazo[4,5-d]pyridazin-5-yl]{3-[4-(propyloxy)-2-(trifluoromethyl)phenyl]-5-isoxazolyl}acetate]
EC50 ([2]; Table 2): 0.007 µM | EC50 ([3]; Table 2): 0.003 µM

CCCOC(=O)C(c1cc(-c2ccc(OCCC)cc2C(F)(F)F)no1)n1cc2nc(-c3cccc(F)c3F)nc-2cn1 (stereo not shown) [Compound 3, Propyl [2-(2,3-difluorophenyl)-5H-imidazo[4,5-d]pyridazin-5-yl]{3-[4-(propyloxy)-2-(trifluoromethyl)phenyl]-5-isoxazolyl}acetate]
EC50 ([2]; Table 2): 0.02 µM | EC50 ([3]; Table 2): 0.005 µM

O=C(OCCCOP(=O)(O)O)C(c1cc(-c2ccc(C3CC3)cc2C(F)(F)F)no1)n1cc2nc(-c3cccc(F)c3F)nc-2cn1 (stereo not shown) [Compound 186, 3-(phosphonooxy)propyl {3-[4-cyclopropyl-2-(trifluoromethyl)phenyl]-5-isoxazolyl}[2-(2,3-difluorophenyl)-5H-imidazo[4,5-d]pyridazin-5-yl]acetate]
CC50 [1]: 50 µM | EC50 ([2]; Table 3): 0.079 µM | EC50 ([3]; Table 3): 0.01 µM

Reference: patent US20110052534A1, “Imidazopyridazine Compounds for Treating Viral Infections” (priority 2009, published 2011)
